Measured values as given in article PMC5650337, “A peptidomimetic with a chiral switch is an inhibitor of epidermal growth factor receptor heterodimerization” (Oncotarget, 2017).
Where two headings read alike, the source gives them in different places. One block for each compound: values may come before it. Where a SMILES comes first, the peptide text is derived from it.

Legend:
[1] = target: T1, HER2:HER3 heterodimerization in tumor sections (Homo sapiens, UniProt P04626); assay: PLA on xenograft tumor sections; assay type: in vivo, athymic nude mice
T1 construct: from tissue; host or cells: BT-474 xenograft tumours grown in athymic nude mice
Protocol: Western blot and PLA assay were carried out on tumor sections as described before. Immunoblot analysis was performed to evaluate the levels of total HER2 and phosphorylated HER2. Tumor sections were deparaffinized using xylene and rehydrated with decreasing concentrations of ethanol. Antigen retrieval on the microsections of the breast tumors was done in a steaming sodium citrate buffer (10 mM, 0.05% Tween-20, pH 6.0) for 5 min. The tumor sections were then used to analyze inhibition of HER2:HER3 dimerization using PLA.

[2] = system: BT-474 breast tumors; assay: Xenograft model of breast cancer; assay type: in vivo, athymic nude mice; settings: BT-474 xenograft
Protocol: All animals were handled according to the approved protocol from IACUC at the University of Louisiana at Monroe. Athymic nude mice (Foxn1nu/Foxn1+, female, 4–5 weeks) were purchased from Harlan Laboratories (Indianapolis, IN) and maintained in the ULM School of Pharmacy vivarium. After acclimatization of animals to the local environment, estrogen (17β-estradiol) pellets (0.72 mg, 90-day release) were implanted subcutaneously in the mice, under anesthesia. Tumors were induced in mice as described previously. Orthotopic injection of about three-million BT-474 cells suspended in the serum-free RPMI-1640 medium was done at the second left mammary fat pad. Mice were observed every day for tumor formation, and the tumor diameter was measured with calipers, and the tumor volume was calculated. When a tumor diameter of 3 mm was achieved, mice were randomly assigned to four groups of six. These groups contain negative control (vehicle control), positive control (lapatinib), and two treatment groups (compound 9 and 18). The mice were treated for 19 days. Compound 18 was administered near the base of the tumor at a dose of 4 mg/kg twice a week. Control groups received intratumor saline injections twice a week, and lapatinib was administered at 10 mg/kg once a week by intraperitoneal injection. The marker to end the experiments was based on tumor doubling time rather than tumor volume. Since tumor doubling time was 4 times in 19 days, experiments were stopped on the 19th day. Tumor-bearing mice were sacrificed, and three tumors per group were harvested and maintained at –80°C and the remaining three tumors were fixed in paraffin blocks. Microsections (5 µm) of paraffin fixed tumors were stained with hemotoxylin and eosin (H&E) and observed for necrosis by a pathologist. All data are presented as the mean ± SE. Statistical differences were evaluated by Mann-Whitney U test as well as one-way ANOVA analysis of data from different groups, and the criterion for statistical significance was p < 0.05.

[3] = system: SKBR-3 cells; assay: cells; settings: Homo sapiens, SK-BR-3, 72 h, read-out: IC50 SKBR-3(+)
Protocol: (§1) Cellular assays were performed using BT-474, SKBR-3, Calu-3, MCF-7, and MCF-10A cells (ATCC). Antiproliferative activity was measured by CellTiter-Glo®, [49] a luminescence-based cell viability assay. In a 96-well plate, 1 × 10^4 cells/well were seeded and incubated overnight at 37°C and 5% CO2. Stock solutions of peptidomimetics were prepared by dissolving 1.5 mg/mL of compounds in DMSO. Stock solution of the compounds were diluted using the serum-free medium to prepare solutions of different concentrations of compounds. Compounds in the medium were added to the wells in triplicate and incubated for 72 h. As controls, cells treated with 1% sodium dodecyl sulfate and 1% dimethyl sulfoxide were used. At the end of the experiment, CellTiter-Glo® reagent was added, and luminescence was measured by a plate reader. A dose response curve was generated using luminescence vs concentration of compounds and IC50 values were obtained using Prism® (GraphPad Software, La Jolla, CA). Experiments were repeated at least three times to obtain standard deviation values.

[4] = system: SKBR-3 cells
Protocol: as §1

[5] = system: SKBR-3 cells; design: method as in PMID 21887403, PMID 20919746, PMID 25346057, PMID 24222531, PMID 19703026; settings: Table 2, compounds marked * reported earlier; read-out: Antiproliferative activity (IC50 µM) SKBR-3 cells; cited from earlier work
[6] = target: T2, HER2:HER3 dimerization in transfected U2OS cells (Homo sapiens, UniProt P04626); assay: Enzyme fragment complementation (PathHunter) assay; assay type: cell-based; settings: for Inhibition of HER2:HER3 dimerization (PathHunter): in the presence of 0.3 µM NRG1
T2 construct: host or cells: U2OS
Protocol: A Pathhunter assay kit was obtained from DiscoverX, and enzyme fragment complementation assay was carried out. U2OS cells transfected with HER3:HER2 were used for the assay. After cells were attached to the wells, they were incubated with compound 18 and controls at different concentration in the presence of neuregulin-1 (NRG-1) at 0.3 µM concentration. After 24 h of incubation, reagents were added, and luminescence was measured and compared with a control without any compound. A plot of luminescence versus concentration was obtained to measure the dimerization of HER3:HER2 and its inhibition by compound 18.

[7] = system: SKOV-3 cells; settings: read-out: IC50 SKOV-3(+); HER2-overexpressing ovarian cancer cells, 72 h
Protocol: as §1

[8] = system: BT-474 cells; settings: read-out: IC50 BT-474 (+); HER2-overexpressing breast cancer cells, 72 h
Protocol: as §1

[9] = target: T3, HER2 ECD (domains I to IV) (Homo sapiens, UniProt P04626); assay: Surface plasmon resonance analysis; assay type: binding; settings: protein immobilized on CM5 chip, substance as analyte
T3 construct: Extracellular domains of proteins HER2, EGFR, HER3, and HER4 purchased from Leinco Technologies; purchased Leinco Technologies (St. Louis, MO)
Protocol: Surface plasmon resonance analysis was performed using GE X100. Extracellular domains of proteins HER2, EGFR, HER3, and HER4 purchased from Leinco Technologies (St. Louis, MO). […] Compound 18 and controls were used as analytes. Compound 18 at different concentrations (0 to 200 µM) was passed through an SPR chip, and binding kinetics were analyzed for each of the EGFR bindings. A blank subtracted sensorgram for compound 18 was represented.

[10] = system: Calu-3 cells; settings: read-out: IC50 Calu-3 (+); HER2-overexpressing lung cancer cells, 72 h
Protocol: as §1

[11] = system: MCF-7 cells; assay: Antiproliferative activity (CellTiter-Glo); assay type: cell-based; settings: breast cancer cells that do not overexpress HER2, 72 h
From the text: Erlotinib was from Sigma (Sigma-Aldrich Chemie GmbH).

[12] = read-out: Antiproliferative activity (IC50 µM) SKBR-3 cells, Table 2, compound 18 and diastereoisomers

- IC50 [3]: 13 ± 3 nM
Compound: CS(=O)(=O)CCNCc1ccc(-c2ccc3ncnc(Nc4ccc(OCc5cccc(F)c5)c(Cl)c4)c3c2)o1 [Lapatinib, reference compound]
- HER2:HER3 heterodimerization in tumor sections (PLA) [1]: red fluorescence due to dimerization of HER2:HER3
- Tumor growth versus vehicle ([2]; 19 days, 18 and 9 4 mg/kg twice a week intratumor, lapatinib 10 mg/kg once a week i.p.): significant delay in tumor growth

Compound: N=C(N)NCCC[C@@H]1NC(=O)[C@H]2CCCN2C(=O)[C@@H]2CCCN2C(=O)[C@H](CCCNC(=N)N)NC(=O)C[C@H](c2cccc3ccccc23)NC(=O)[C@H](Cc2ccccc2)NC(=O)[C@H](CC(=O)O)NC(=O)[C@H](CC(=O)O)NC(=O)[C@H](Cc2ccccc2)NC(=O)C[C@@H](c2cccc3ccccc23)NC1=O [compound 18-1, Cyclo(1,10)P^1p^2R^3(S-Anapa)^4F^5D^6D^7F^8(R-Anapa)^9R^10] (HELM PEPTIDE1{P.[dP].R.[O=C(C[C@H](N[*:1])c1cccc2ccccc12)[*:2]].F.D.D.F.[O=C(C[C@@H](N[*:1])c1cccc2ccccc12)[*:2]].R}$PEPTIDE1,PEPTIDE1,1:R1-10:R2$$$V2.0)
- IC50 [4, 12]: > 50 µM

Compound: N=C(N)NCCC[C@@H]1NC(=O)[C@H]2CCCN2C(=O)[C@@H]2CCCN2C(=O)[C@H](CCCNC(=N)N)NC(=O)C[C@@H](c2cccc3ccccc23)NC(=O)[C@H](Cc2ccccc2)NC(=O)[C@H](CC(=O)O)NC(=O)[C@H](CC(=O)O)NC(=O)[C@H](Cc2ccccc2)NC(=O)C[C@H](c2cccc3ccccc23)NC1=O [compound 18-2, Cyclo(1,10)P^1p^2R^3(R-Anapa)^4F^5D^6D^7F^8(S-Anapa)^9R^10] (HELM PEPTIDE1{P.[dP].R.[O=C(C[C@@H](N[*:1])c1cccc2ccccc12)[*:2]].F.D.D.F.[O=C(C[C@H](N[*:1])c1cccc2ccccc12)[*:2]].R}$PEPTIDE1,PEPTIDE1,1:R1-10:R2$$$V2.0)
- IC50 [4, 12]: 0.743 ± 0.35 µM

Compound: N=C(N)NCCC[C@@H]1NC(=O)[C@H]2CCCN2C(=O)[C@@H]2CCCN2C(=O)[C@H](CCCNC(=N)N)NC(=O)C[C@@H](c2cccc3ccccc23)NC(=O)[C@H](Cc2ccccc2)NC(=O)[C@H](CC(=O)O)NC(=O)[C@H](CC(=O)O)NC(=O)[C@H](Cc2ccccc2)NC(=O)C[C@@H](c2cccc3ccccc23)NC1=O [compound 18-3, Cyclo(1,10)P^1p^2R^3(S-Anapa)^4F^5D^6D^7F^8(S-Anapa)^9R^10] (HELM PEPTIDE1{P.[dP].R.[O=C(C[C@H](N[*:1])c1cccc2ccccc12)[*:2]].F.D.D.F.[O=C(C[C@H](N[*:1])c1cccc2ccccc12)[*:2]].R}$PEPTIDE1,PEPTIDE1,1:R1-10:R2$$$V2.0)
- IC50 [4, 12]: 41.1 ± 3.2 µM

Compound: N=C(N)NCCC[C@@H]1NC(=O)[C@@H]2CCCN2C(=O)[C@H]2CCCN2C(=O)[C@H](CCCNC(=N)N)NC(=O)C[C@@H](c2cccc3ccccc23)NC(=O)[C@H](Cc2ccccc2)NC(=O)[C@H](CC(=O)O)NC(=O)[C@H](CC(=O)O)NC(=O)[C@H](Cc2ccccc2)NC(=O)C[C@@H](c2cccc3ccccc23)NC1=O [compound 18-4, Cyclo(1,10)p^1P^2R^3(S-Anapa)^4F^5D^6D^7F^8(S-Anapa)^9R^10] (HELM PEPTIDE1{[dP].P.R.[O=C(C[C@H](N[*:1])c1cccc2ccccc12)[*:2]].F.D.D.F.[O=C(C[C@H](N[*:1])c1cccc2ccccc12)[*:2]].R}$PEPTIDE1,PEPTIDE1,1:R1-10:R2$$$V2.0)
- IC50 [4, 12]: 0.456 ± 0.13 µM

Compound: N=C(N)NCCC[C@@H]1NC(=O)[C@@H]2CCCN2C(=O)[C@H]2CCCN2C(=O)[C@H](CCCNC(=N)N)NC(=O)C[C@H](c2cccc3ccccc23)NC(=O)[C@H](Cc2ccccc2)NC(=O)[C@H](CC(=O)O)NC(=O)[C@H](CC(=O)O)NC(=O)[C@H](Cc2ccccc2)NC(=O)C[C@H](c2cccc3ccccc23)NC1=O [compound 18-5, Cyclo(1,10)p^1P^2R^3(R-Anapa)^4F^5D^6D^7F^8(R-Anapa)^9R^10] (HELM PEPTIDE1{[dP].P.R.[O=C(C[C@@H](N[*:1])c1cccc2ccccc12)[*:2]].F.D.D.F.[O=C(C[C@@H](N[*:1])c1cccc2ccccc12)[*:2]].R}$PEPTIDE1,PEPTIDE1,1:R1-10:R2$$$V2.0)
- IC50 [4, 12]: 12.8 ± 1.9 µM

- Inhibition of HER2:HER3 dimerization (PathHunter) [6]: shown to inhibit HER2:HER3 dimerization
Compound: Ac-f(Anapa)r-NH2 [compound 21]
- IC50 [5]: 0.373 ± 0.15 µM

Compound: Cyclo(1,10)GPR- (Anapa)FDEFWR [compound 20]
- IC50 [5]: > 100 µM

Compound: H2N-K(3-amino-biphenyl propionic acid)F-OH [CP, reference compound]
- IC50 ([4]; read-out: IC50 SKBR-3(+), HER2-overexpressing breast cancer cells, 72 h): > 100 µM
- IC50 [7]: > 100000 nM
- IC50 [8]: > 100000 nM
- SPR binding to HER2 ECD [9]: no SPR response was observed
- IC50 [10]: > 100000 nM
- IC50 [11]: > 100000 nM
- Inhibition of HER2:HER3 dimerization (PathHunter) [6]: did not inhibit HER2:HER3 dimerization

Compound: NH2-Arg-Anapa-Phe-Asp-OH [compound 9]
- IC50 [5]: 0.445 ± 0.032 µM
- Difference in delay of tumor growth between compound 18 and compound 9 ([2]; 4 mg/kg twice a week): not statistically significant

Compound: NH2-Arg-Anapa-Phe-OH [compound 5]
- IC50 [5]: 0.396 ± 0.022 µM

Compound: neuregulin-1 [reference compound]
- Induction of HER2:HER3 dimerization (PathHunter) ([6]; agonist dose-response): concentration dependence of induction of dimerization
